Earlier results, collected in patent US20020040051A1, “Solid dispersion of ipriflavone for oral administration and its manufacturing methods” (priority 2000, published 2002).
In brackets after ≈: the same amount, converted by molar mass.

Assays:
[1] = 200 mg 3-4 times daily (600-800 mg daily), healthy adult male (18-60 yr); cited from earlier work
[2] = cited from earlier work

In the case of `CC(C)Oc1ccc2c(=O)c(-c3ccccc3)coc2c1` [compound 1, 3-phenyl-7-isopropoxy-4H-1-benzopyrane-4-one], the “day of administration on which blood concentration reaches an effective level” value [1] is listed as 3rd or 4th day and the water solubility [2] is listed as 1 µg/mL (≈ 3.57 µM).
